“Also recorded” adds a separate entry of the source.
How the values were obtained:
[1] = Hygroscopicity test (VTI SGA-100, 25° C., 5 to 95% relative humidity); type: physicochemical; conditions: for hygroscopicity (in words): 5 to 95% relative humidity
Procedure: The measurement was carried out using “DVS” or “SGA-100”, under the conditions of temperature: 25° C., measurement range: 5 to 95% relative humidity, and measurement interval: 5% relative humidity.
For the measurement of hygroscopicity, “VTI SGA-100” was used under the conditions of temperature: 25° C., measurement range: 5 to 95% relative humidity, and measurement interval: 5% relative humidity.

[2] = Photo stability test (impurity by HPLC after 1.2 million lux-hours); type: physicochemical; conditions: after preservation under 1.2 million lux-hours of integrated luminance, 25° C.
Procedure: The amount of impurity was measured through HPLC using a preserved sample, under 1.2 million lux-hours (temperature: 25° C.) of integrated luminance, using a light stability testing device LTL-200D3J-15.
The amount of impurity was measured through HPLC using a preserved sample, under 1.2 million lux-hours (temperature: 25° C.) of integrated luminance, using a light stability testing device LTL-200D3J-15. • HPLC Conditions • Device: LC1100 (LC-5) manufactured by Agilent • Mobile phase: A: 0.01 mol/L, NaClO4 buffer (pH 2.5), B: MeCN • Flow rate: 0.2 mL/min • Column: Inertsil ODS-3 3 um (2.1 mm×100 mm) • Column temperature: 40° C. • Gradient condition: Bconc. 20 to 90% (0 to 18 min), 90% (18 to 23 min), 20% (23.1 to 33 min) • Injection volume: 1 μL • Autosampler temperature: 5° C. • Detection wavelength: 254 nm

hygroscopicity (in words) [1]	Impurity Increase Amount (%) [2]	Impurity Increase Amount (%) ([2]; listed as α-form Crystal)	Impurity Increase Amount (%) ([2]; listed as β-form Crystal)	Impurity Increase Amount (%) ([2]; listed as γ-form Crystal)	relative humidity from which a drastic increase in weight is shown [1]	relative humidity from which hygroscopicity gradually starts [1]	moisture retained ([1]; at a relative humidity of about 95%)	Impurity Increase Amount (%) ([2]; listed as δ-form Crystal)	Structure (SMILES)
no hygroscopicity	0.0%	–	0.0%	–	–	–	–	–	CC(C)c1nnc(-c2ccc(-c3ccccc3)nc2)n1-c1cccc2nonc12 [β-form crystal, 4-[3-isopropyl-5-(6-phenyl-3-pyridyl)-4H-1,2,4-triazol-4-yl]-2,1,3-benzoxadiazole]
no hygroscopicity	0.0%	–	–	0.0%	–	–	–	–	CC(C)c1nnc(-c2ccc(-c3ccccc3)nc2)n1-c1cccc2nonc12 [γ-form crystal, 4-[3-isopropyl-5-(6-phenyl-3-pyridyl)-1,2,4-triazol-4-yl]-2,1,3-benzoxadiazole]
–	1.0%	–	–	–	about 80%	about 50%	approximately 2%	1.0%	CC(C)c1nnc(-c2ccc(-c3ccccc3)nc2)n1-c1cccc2nonc12 [δ-form crystal, 4-[3-isopropyl-5-(6-phenyl-3-pyridyl)-4H-1,2,4-triazol-4-yl]-2,1,3-benzoxadiazole, reference compound]

Structure (SMILES)	hygroscopicity (in words) [1]	Impurity Increase Amount (%) [2]	Impurity Increase Amount (%) ([2]; listed as α-form Crystal)	Impurity Increase Amount (%) ([2]; listed as β-form Crystal)	Impurity Increase Amount (%) ([2]; listed as γ-form Crystal)	relative humidity from which a drastic increase in weight is shown [1]	relative humidity from which hygroscopicity gradually starts [1]	moisture retained ([1]; at a relative humidity of about 95%)	Impurity Increase Amount (%) ([2]; listed as δ-form Crystal)
CC(C)c1nnc(-c2ccc(-c3ccccc3)nc2)n1-c1cccc2nonc12 [α-form crystal, 4-[3-isopropyl-5-(6-phenyl-3-pyridyl)-4H-1,2,4-triazol-4-yl]-2,1,3-benzoxadiazole]	less than that of the known δ-form crystal; also recorded: relatively low hygroscopicity as compared to the known δ-form crystal	0.0%	0.0%	–	–	–	–	–	–

From patent US8278333B2, “Crystals of benzoxadiazole derivative” (Astellas Pharma Inc., priority 2006, dated 2012)
